Measurements: patent publication US11708562B2, “Differentiation of human embryonic stem cells” (Janssen Biotech, Inc., priority 2006, dated 2023)

Experiments:
[1] = tested on: H9P46-P48 embryonic stem cells; experiment: Definitive endoderm on […]: effect of GSK-3B inhibitor (FACS CXCR4, PCR); assay type: cell-based, human; conditions: 20 ng/ml of Wnt-3a or 100-1000 nM GSK-3B inhibitor
Method: In order to confirm that the effect of Wnt-3a was through the Wnt pathway, a GSK-3 inhibitor was used to activate the downstream targets of Wnt, such as beta catenin. […] FIG. 29A depicts the expression of CXCR4 by FACS at day 5 in the absence of Wnt-3a or GSK-3B inhibitor, b)+20 ng/ml Wnt-3a, c)+1000 nM GSK-3B inhibitor IX, d)+500 nM GSK-3B inhibitor IX, e)+100 nM GSK-3B inhibitor IX, f)+10 nM GSK-3B inhibitor IX, g)+100 nM GSK-3B inhibitor IX for days 1-2, and h)+10 nM GSK-3B inhibitor IX for days 1-2.

[2] = tested on: human embryonic stem cell line H1 at passage 55; experiment: Definitive endoderm on human serum coated plates (real-time PCR); assay type: cell-based
Method: Cultures of the human embryonic stem cell line H1 at passage 55 were grown and differentiated on human serum (Sigma, # H1388, MO) coated plates. 0.5 ml of human serum was added to each well of 6 well tissue culture treated dish, incubated for 1 hr at room temperature, and aspirated before adding human embryonic stem cells. […] These findings parallel our findings for human embryonic stem cells cultured on […]™ or human fibronectin coated plates.

[3] = tested on: H9P53 embryonic stem cells; experiment: Definitive endoderm on […]: combination of Wnt-3a, GSK-3B inhibitor, BMP-4; assay type: cell-based, human
Excerpt: Results are expressed as fold increase over untreated cells. […] Results are expressed as fold increase over untreated cells.

[4] = tested on: human embryonic stem cell line H9; experiment: Formation of pancreatic endocrine cells: γ-secretase inhibitor L-685,458 (PCR); assay type: cell-based; conditions: L-685,458 at 10 μM for three days
Method: After this time interval, the cells were then treated for six days with combinations of retinoic acid and FGF as outlined in Example 2, then the culture medium was removed and replaced with medium comprising DMEM/F12 with 2% FBS, containing the γ-secretase inhibitors L-685,458 at 10 μM for three days.

[5] = tested on: human embryonic stem cell line H9; experiment: Formation of pancreatic endoderm: retinoic acid and bFGF after activin A (PCR, immunocytochemistry); assay type: cell-based
Excerpt: Final data were expressed relative to a calibrator sample.

[6] = tested on: H7P44 and H9P46 embryonic stem cells; experiment: Definitive endoderm on […]: role of Wnt ligands (FACS CXCR4, real-time PCR); assay type: cell-based, human; conditions: H7 and H9; low serum+AA+/-Wnt ligands
Method: In some of the cultures 20 ng/ml Wnt-3a (Catalog #1324-WN-002, R&D Systems, MN), 20 ng/ml Wnt-5a (Catalog #654-WN-010, R&D Systems, MN), 25 ng/ml Wnt-7a (Catalog #3008-WN-025, R&D Systems, MN), or 25 ng/ml Wnt-5b (Catalog #3006-WN-025, R&D Systems, MN) was added throughout the five day treatment. FIGS. 24A and 24B depicts phase contrast images of H9P46 definitive endoderm culture in the presence of high concentration of (a) AA or (b) AA+20 ng/ml Wnt-3a. FIGS. 25A, 25B, 25C and 25D depicts the expression of CXCR4 by FACS at day 5 for H7P44, and H9P46 lines cultured on […]™ (1:30 dilution) and exposed to the DE protocol+Wnt-3a (FIGS. 25B and 25D) and -Wnt-3a (FIGS. 25A and C).

[7] = tested on: human embryonic stem cell line H9; experiment: Derivation of hepatocytes from human embryonic stem cells (PCR of AFP, albumin); assay type: cell-based; conditions: five days after 7 days activin A
Excerpt: After this time, the cells were harvested, and samples of mRNA were collected for analysis.

## O=C1Nc2cc(Br)ccc2/C1=C1/Nc2ccccc2/C1=N\O [GSK-3B inhibitor IX, reference compound]
[1]
  number of CXCR4 positive cells (FACS): significantly increased
[2]
  expression of definitive endoderm markers compared to activin A only: Robust expression
[3]; Wnt-3A plus GSK inhibitor in the presence of activin A
  definitive endoderm markers, combination versus each agent by itself: do not lead to significant upregulation

## CC(C)C[C@H](NC(=O)[C@H](Cc1ccccc1)C[C@@H](O)[C@H](Cc1ccccc1)NC(=O)OC(C)(C)C)C(=O)N[C@@H](Cc1ccccc1)C(N)=O [L-685,458]
[4]
  expression of Ngn3 relative to activin A alone or retinoic acid with FGFs: approximately 50 fold

## CC1=C(/C=C/C(C)=C/C=C/C(C)=C/C(=O)O)C(C)(C)CCC1 [retinoic acid, all-trans retinoic acid]
[5]; 1 μM retinoic acid and 50 ng/ml bFGF, absence of activin A
  expression of GLUT-2 and PTF1a: largest increase
[5]; three days activin A, then 5 days retinoic acid and 50 ng/ml bFGF in the absence of activin A
  Pdx1 expression relative to activin A treatment alone for 5 days: approximately 3500 fold

B1: BMP-4: Catalog #314-BP-010, R&D Systems (protein, UniProt P12644 293-408, looked up)
Bone morphogenetic protein 4: SPKHHSQRARKKNKNCRRHSLYVDFSDVGWNDWIVAPPGYQAFYCHGDCPFPLADHLNSTNHAIVQTLVNSVNSSIPKACCVPTELSAISMLYLDEYDKVVLKNYQEMVVEGCGCR
[3]; 25 ng/ml BMP-4
  effect of addition of BMP-4 to the DE protocol: induce formation of mesoderm marker BRY

B2: Wnt-7a: Wnt ligand, Catalog #3008-WN-025, R&D Systems (protein, UniProt O00755 32-349, looked up)
Protein Wnt-7a: LGASIICNKIPGLAPRQRAICQSRPDAIIVIGEGSQMGLDECQFQFRNGRWNCSALGERTVFGKELKVGSREAAFTYAIIAAGVAHAITAACTQGNLSDCGCDKEKQGQYHRDEGWKWGGCSADIRYGIGFAKVFVDAREIKQNARTLMNLHNNEAGRKILEENMKLECKCHGVSGSCTTKTCWTTLPQFRELGYVLKDKYNEAVHVEPVRASRNKRPTFLKIKKPLSYRKPMDTDLVYIEKSPNYCEEDPVTGSVGTQGRACNKTAPQASGCDLMCCGRGYNTHQYARVWQCNCKFHWCCYVKCNTCSERTEMYTCK
[6]
  expression of definitive endoderm markers (real-time PCR): minimal impact

B3: Wnt-5b: Wnt ligand, Catalog #3006-WN-025, R&D Systems (protein, UniProt P22726 18-359, looked up)
Protein Wnt-5b: QLLTDANSWWSLALNPVQRPEMFIIGAQPVCSQLPGLSPGQRKLCQLYQEHMSYIGEGAKTGIRECQHQFRQRRWNCSTVDNTSVFGRVMQIGSRETAFTYAVSAAGVVNAISRACREGELSTCGCSRAARPKDLPRDWLWGGCGDNVEYGYRFAKEFVDAREREKNFAKGSEEQGRALMNLQNNEAGRRAVYKMADVACKCHGVSGSCSLKTCWLQLAEFRKVGDRLKEKYDSAAAMRITRQGKLELANSRFNQPTPEDLVYVDPSPDYCLRNETTGSLGTQGRLCNKTSEGMDGCELMCCGRGYDRFKSVQVERCHCRFHWCCFVRCKKCTEVVDQYVCK
[6]
  expression of definitive endoderm markers (real-time PCR): minimal impact

B4: FGF-4: member of the fibroblast growth factor family (protein, UniProt P08620 31-206, looked up)
Fibroblast growth factor 4: APTAPNGTLEAELERRWESLVALSLARLPVAAQPKEAAVQSGAGDYLLGIKRLRRLYCNVGIGFHLQALPDGRIGGAHADTRDSLLELSPVERGVVSIFGVASRFFVAMSSKGKLYGSPFFTDECTFKEILLPNNYNAYESYKYPGMFIALSKNGKTKKGNRVSPTMKVTHFLPRL
[7]
  expression of α-fetoprotein (AFP) and albumin: further increased

B5: Wnt-5a: Wnt ligand, Catalog #654-WN-010, R&D Systems (protein, UniProt P22725 62-380, looked up)
Protein Wnt-5a: IIGAQPLCSQLAGLSQGQKKLCHLYQDHMQYIGEGAKTGIKECQYQFRHRRWNCSTVDNTSVFGRVMQIGSRETAFTYAVSAAGVVNAMSRACREGELSTCGCSRAARPKDLPRDWLWGGCGDNIDYGYRFAKEFVDARERERIHAKGSYESARILMNLHNNEAGRRTVYNLADVACKCHGVSGSCSLKTCWLQLADFRKVGDALKEKYDSAAAMRLNSRGKLVQVNSRFNSPTTQDLVYIDPSPDYCVRNESTGSLGTQGRLCNKTSEGMDGCELMCCGRGYDQFKTVQTERCHCKFHWCCYVKCKKCTEIVDQFVCK
[6]
  expression of definitive endoderm markers (real-time PCR): minimal impact
